# Where a name gives a salt, the structure may show the parent alone.
# What was measured:
# Recombinant human GR = Recombinant human GR (Homo sapiens (Human), UniProt P04150); assay: GR competitive binding assay by fluorescence polarization; conditions: 20 μM test compound solution, 10 μL/well; 2 hours; DEX positive control; read-out: GR binding rate (%)
# Experimental: In order to evaluate a binding activity of the present compound to GR, a GR receptor competitor assay was carried out by a fluorescence polarization method. In the assay, a GR competitive binding assay kit (manufactured by Invitrogen, cat No. P2816) was used for the assay, and a procedure was carried out according to the protocol attached to the kit. Hereinafter, the specific method will be described.
# GR screening buffer: A buffer containing 10 mM of potassium phosphate (pH 7.4), 20 mM of sodium molybdate (Na2MoO4), 0.1 mM of ethylene diamine tetraacetic acid (EDTA), 5 mM of dithiothreitol (DTT), 0.1 mM of stabilizing peptide and 2% of dimethylsulfoxide was prepared.
# 4×GS1 solution: Fluormone™ GS1, which is a fluorescent glucocorticoid ligand, was diluted with GR screening buffer, whereby a 4 nM solution was prepared.
# 4×GR solution: Recombinant human GR was diluted with GR screening buffer, whereby a 16 nM solution was prepared.
# After a test compound was dissolved in dimethylsulfoxide, the resulting solution was diluted with GR screening buffer, whereby a 20 μM test compound solution was prepared. In addition, DEX was similarly dissolved, whereby a DEX solution with a […] concentration was prepared, and the solution was diluted with GR screening buffer, whereby a 2 mM DEX solution was prepared. DEX was used as positive control.
# • 1) The test compound solution was added in an amount of 10 μL into each well of a 384-well plate. • 2) 4×GS1 solution and 4×GR solution were added in an amount of 5 μL into each well, respectively. • 3) GR screening buffer was added in an amount of 10 μL/well into each well in place of the test compound solution, which was made a negative control. • 4) A 2 mM of DEX was added in an amount of 10 μL/well into each well in place of the test compound solution, which was made a positive control. • 5) The plate was incubated in a dark place at room temperature for 2 hours, and fluorescence polarization of each well was measured. (Calculation Equation of GR Binding Ratio)
# A GR binding ratio (%) was calculated from the following equation. GR binding ratio (%)=100×{1−(fluorescence polarization of test compound solution−average value of fluorescence polarization of positive control solution)/(average value of fluorescence polarization of negative control solution−average value of fluorescence polarization of positive control solution)}
# [1] = tested on: IL-6 production in human corneal epithelium cell line (HCE-T); assay: IL-6 production inhibitory action evaluation test (LPS stimulation, HTRF); type: cell-based; conditions: 4 hours; for Emax: 100 μM test compound solution 10 μL/well, DEX treated group = 100, read-out: IL-6 production inhibitory ratio (% DEX); for IC50: IL-6 production inhibition
# Experimental: To evaluate the action of the present compounds as a GR agonist, IL-6 production inhibitory action in human corneal epithelial cell line after LPS stimulation was examined The IL-6 production was measured by using the HTRF method (Cat No. 62IL6PEB manufactured by Cisbio Bioassays, Inc.) according to the attached protocol. The specific method is described below.
# LPS solution: After dissolving LPS in PBS(−), the resulting solution was diluted with a culture solution, whereby an LPS solution with a 1 μg/mL concentration was prepared.
# After dissolving the test compound in dimethylsulfoxide, the solution was diluted with a 10% FBS-DMEM/Ham's F12 medium, whereby a 100 μM of the test compound solution was prepared. […] In addition, DEX was similarly dissolved, whereby a 100 μM concentration of the DEX solution was prepared, and an IL-6 production inhibitory ratio of DEX was measured, and used for calculation of Efficacy (% DEX).
# Used cells: human corneal epithelium cell line (HCE-T) (RIKEN, Institute of Physical and Chemical Research)
# The cells continued to subculture according to this method were used for the test. (Test Method and Measurement Method) • 1) The subcultured HCE-T was recovered and the cells were seeded at 2.0×10^4 cells/0.1 mL/well in a 96-well flat bottom culture plate. • 2) After culturing overnight, medium the medium was removed and each 80 μL/well of 10%
# FBS-DMEM/Ham's F12 medium was added. • 3) Test compound solution was added with each 10 μL/well. • 4) LPS solution was added with each 10 μL/well. • 5) The sample to which 1% dimethylsulfoxide-containing 10% FBS-DMEM/Ham's F12 medium was added with each 10 μL/well in place of each test compound solution, and 10% FBS-DMEM/Ham's F12 medium was added in place of the LPS solution was made a negative control. • 6) The sample in which 1% dimethylsulfoxide-containing 10% FBS-DMEM/Ham's F12 medium was added with each 10 μL/well in place of each test compound solution was made a positive control. • 7) After completion of 4 hours cultivation, the supernatant was recovered and the amount of IL-6 released in the supernatant was measured by using an HTRF human IL-6 Kit. • 8) The IL-6 production inhibitory ratio was calculated according to the following calculation formula. (Calculation of IL-6 Production Inhibitory Ratio)
# The IL-6 production inhibitory ratio (%) was calculated by the following formula. IL-6 production inhibitory ratio (%)=100×{1−(IL-6 produced amount of each test compound solution−average value of IL-6 produced amount of negative control group)/(average value of IL-6 produced amount of positive control group−average value of IL-6 produced amount of negative control group)}(%)
# Further, the IL-6 production inhibitory ratio (Efficacy (% DEX)) when the DEX treated group was made 100 was calculated. Efficacy (% DEX)=100×{(average value of IL-6 production inhibitory ratio of each test compound solution)/(average value of IL-6 production inhibitory ratio of DEX treated group)}(%)
# In addition, IC50 was calculated according to a conventional method. IDBS XLfit4 was used for the calculation.
# Chain of Recombinant human GR (P04150 whole entry): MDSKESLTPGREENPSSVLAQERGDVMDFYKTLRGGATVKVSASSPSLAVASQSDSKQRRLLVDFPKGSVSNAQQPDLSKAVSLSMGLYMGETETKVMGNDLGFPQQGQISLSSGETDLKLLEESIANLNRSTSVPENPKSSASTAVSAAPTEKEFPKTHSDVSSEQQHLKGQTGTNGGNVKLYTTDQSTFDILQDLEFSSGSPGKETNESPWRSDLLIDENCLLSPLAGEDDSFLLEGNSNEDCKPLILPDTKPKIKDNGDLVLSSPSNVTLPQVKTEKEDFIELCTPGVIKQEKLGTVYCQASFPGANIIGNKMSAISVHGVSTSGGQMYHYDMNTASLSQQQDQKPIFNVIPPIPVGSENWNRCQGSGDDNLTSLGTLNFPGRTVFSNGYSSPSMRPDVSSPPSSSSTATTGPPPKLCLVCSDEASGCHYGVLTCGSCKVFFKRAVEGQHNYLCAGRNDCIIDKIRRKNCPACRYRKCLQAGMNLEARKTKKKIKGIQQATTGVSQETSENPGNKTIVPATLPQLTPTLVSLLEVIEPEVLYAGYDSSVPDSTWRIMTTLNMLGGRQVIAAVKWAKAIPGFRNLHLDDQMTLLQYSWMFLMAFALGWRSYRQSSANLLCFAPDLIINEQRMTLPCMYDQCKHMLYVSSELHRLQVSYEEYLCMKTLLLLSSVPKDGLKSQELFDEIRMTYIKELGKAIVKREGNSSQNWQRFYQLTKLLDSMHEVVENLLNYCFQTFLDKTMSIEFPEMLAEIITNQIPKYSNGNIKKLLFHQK
Compound,inhibition at 10 µM (Recombinant human GR) [%],inhibition at 20 µM (stock) (Recombinant human GR) [%],Emax [1] [%],IC50 [1] [nM]
"COc1cc(OC[C@H](O)CC#N)ccc1-c1ccc2c(c1COc1cc(F)ccc1C)N(C)C(=O)C(C)(C)N2 [Compound 5-1, (R)-7-[4-(3-cyano-2-hydroxypropyl)oxy-2-methoxyphenyl]-8-(5-fluoro-2-methyl-phenoxymethyl)-1,3,3-trimethyl-3,4-dihydro-1H-quinoxalin-2-one]",88,,98,14
"COc1cc(OCC(O)CC(=O)N2CCCC2)ccc1-c1ccc2c(c1COc1cc(F)ccc1C)N(C)C(=O)C(C)(C)N2 (centres unmarked) [Compound 10-1, 8-(5-fluoro-2-methylphenoxymethyl)-7-[4-[3-(N-pyrrolidylcarbonyl)-2-hydroxypropyl]oxy-2-methoxyphenyl]-1,3,3-trimethyl-3,4-dihydro-1H-quinoxalin-2-one]",94,,,
"COc1cc(OC[C@H](C)OC(=O)CN)ccc1-c1ccc2c(c1COc1cc(F)ccc1C)N(C)C(=O)C(C)(C)N2 [Compound 11-4, (S)-7-[4-(2-aminoacetoxypropyl)oxy-2-methoxyphenyl]-8-(5-fluoro-2-methylphenoxy-methyl)-1,3,3-trimethyl-3,4-dihydro-1H-quinoxalin-2-one hydrochloride]",,,94,
"COc1cc(OCC(O)CC(=O)OC(C)(C)C)ccc1-c1ccc2c(c1COc1cc(F)ccc1C)N(C)C(=O)C(C)(C)N2 (centres unmarked) [Compound 7-2, 7-[4-(3-t-butoxycarbonyl-2-hydroxypropyl)oxy-2-methoxyphenyl]-8-(5-fluoro-2-methylphenoxymethyl)-1,3,3-trimethyl-3,4-dihydro-1H-quinoxalin-2-one]",> 99,,> 99,83
"COc1cc(OCCO)ccc1-c1ccc2c(c1COc1cc(F)ccc1C)N(C)C(=O)C(C)(C)N2 [Compound 3-1, 8-(5-fluoro-2-methylphenoxymethyl)-7-[4-(2-hydroxyethyl)oxy-2-methoxyphenyl]-1,3,3-trimethyl-3,4-dihydro-1H-quinoxalin-2-one]",> 99,,,
"COc1cc(OCC(O)CC(=O)N2CCCCC2)ccc1-c1ccc2c(c1COc1cc(F)ccc1C)N(C)C(=O)C(C)(C)N2 (centres unmarked) [Compound 10-3, 8-(5-fluoro-2-methylphenoxymethyl)-7-[4-[3-(N-piperidino)carbonyl-2-hydroxy-propyl]oxy-2-methoxyphenyl]-1,3,3-trimethyl-3,4-dihydro-1H-quinoxalin-2-one]",> 99,,,

# Second part, led by results:
inhibition at 10 µM (Recombinant human GR) [%],inhibition at 20 µM (stock) (Recombinant human GR) [%],Compound,Emax [1] [%],IC50 [1] [nM]
> 99,,"COc1cc(OC[C@H](C)OC(=O)[C@@H](N)C(C)C)ccc1-c1ccc2c(c1COc1cc(F)ccc1C)N(C)C(=O)C(C)(C)N2 [Compound 11-5, 7-[4-[(2S)-[(2S)-amino-3-methylbutanoyloxy]propyl]oxy-2-methoxyphenyl]-8-(5-fluoro-2-methylphenoxymethyl)-1,3,3-trimethyl-3,4-dihydro-1H-quinoxalin-2-one hydrochloride]",94,
87,,"CCOC(=O)C(O)COc1ccc(-c2ccc3c(c2COc2cc(F)ccc2C)N(C)C(=O)C(C)(C)N3)c(OC)c1 (stereo in doubt) [Compound 1-6, (R)-7-[4-(2-ethoxycarbonyl-2-hydroxyethyl)oxy-2-methoxyphenyl]-8-(5-fluoro-2-methylphenoxymethyl)-1,3,3-trimethyl-3,4-dihydro-1H-quinoxalin-2-one]",89,< 1
> 99,,"COc1cc(OCC(O)CO)ccc1-c1ccc2c(c1COc1cc(F)ccc1C)N(C)C(=O)C(C)(C)N2 (centres unmarked) [Compound 4-1, 7-[4-(2,3-dihydroxypropyl)oxy-2-methoxyphenyl]-8-(5-fluoro-2-methylphenoxymethyl)-1,3,3-trimethyl-3,4-dihydro-1H-quinoxalin-2-one]",,
,> 99,"COc1cc(OC[C@@H](O)CO)ccc1-c1ccc2c(c1COc1cc(F)ccc1C)N(C)C(=O)C(C)(C)N2 [Compound 4-2, (S)-7-[4-(2,3-dihydroxypropyl)oxy-2-methoxyphenyl]-8-(5-fluoro-2-methylphenoxy-methyl)-1,3,3-trimethyl-3,4-dihydro-1H-quinoxalin-2-one]",,
> 99,,"CCOC(=O)CC(O)COc1ccc(-c2ccc3c(c2COc2cc(F)ccc2C)N(C)C(=O)C(C)(C)N3)c(OC)c1 (centres unmarked) [Compound 7-1, 7-[4-(3-ethoxycarbonyl-2-hydroxypropyl)oxy-2-methoxyphenyl]-8-(5-fluoro-2-methylphenoxymethyl)-1,3,3-trimethyl-3,4-dihydro-1H-quinoxalin-2-one]",,
88,,"COc1cc(OC[C@H](O)CO)ccc1-c1ccc2c(c1COc1cc(F)ccc1C)N(C)C(=O)C(C)(C)N2 [Compound 4-3, (R)-7-[4-(2,3-dihydroxypropyl)oxy-2-methoxyphenyl]-8-(5-fluoro-2-methylphenoxy-methyl)-1,3,3-trimethyl-3,4-dihydro-1H-quinoxalin-2-one]",,
> 99,,"COc1cc(OCC(O)CC(=O)O)ccc1-c1ccc2c(c1COc1cc(F)ccc1C)N(C)C(=O)C(C)(C)N2 (centres unmarked) [Compound 9-1, 7-[4-(3-Carboxy-2-hydroxypropyl)oxy-2-methoxyphenyl]-8-(5-fluoro-2-methylphenoxymethyl)-1,3,3-trimethyl-3,4-dihydro-1H-quinoxalin-2-one]",,

# Reference: US10189796B2, “[4-(1,3,3-trimethyl-2-oxo-3,4-dihydro-1H-quinoxalin-7-yl)phenoxy]ethyloxy compound or salt thereof” (SANTEN PHARMACEUTICAL CO., LTD., priority 2015, dated 2019)
